The text below walks through data of patent publication US7442513B2, “Method of screening for agents that modulate a homer signaling pathway” (The Johns Hopkins University, priority 2003, dated 2008).

For one experiment, the system named is mGluR5 binding to Homer. Description: mGluR5 binding to GST-Homer after treating mGluR5-expressing HEK293 cells with PPIase inhibitors (pull-down, western blot). Format: cell-based. As to conditions: for effect on mGluR5 binding to GST-Homer: HEK293 cells expressing mGluR5, 1 micromolar in medium, differing intervals. Here is the method:
HEK293 cells were transfected with pRK5-mGluR5. 1 micromolar FK506 was added to the medium for differing intervals prior to harvesting and preparation of lysates in the indicated buffer, which include inhibitors of phosphatases and proteases. Lysates were mixed with glutathione agarose beads loaded with GST-Homer 3 EVH1 domain for 1 hr at 4 C. mGluR5 that bound to Homer was then analyzed by western blot. Lysates were also assayed to confirm expression of mGluR5 (lower panel). Note the increase in mGluR5 that binds to Homer from lysates of cells treated for 3 hrs or longer with FK506.
If PPIases regulate the conformational state of the mGluR5, it was anticipated that PPIase inhibitors would alter the ability of the mGluR5 to bind to Homer. To examine this hypothesis, Homer was expressed as a bacterial fusion protein with glutathione S-transferase (GST) and loaded the protein on a glutathione agarose bead. These binding assays are identical to those used previously to document the ligand consensus sequence in mGluR5 (Tu et al., 1998), and for analysis of the binding surfaces of Homer (Beneken et al., 2000).
Cells were treated for different times with PPIase inhibitors and then harvested in buffer containing protease and phosphatase inhibitors and 1% Triton detergent. Soluble lysates were then mixed with beads loaded with GST-Homer incubated for 1 hr at 4° C., washed several times and proteins eluted with SDS loading buffer. […] Increased binding was detected by 3 hrs and remained elevated for 24 hrs.

Experiment [1] has as its system TrpC1 binding to Homer1EVH1. Description: TrpC1 binding to GST-Homer1 EVH1 after treating TrpC1-expressing HEK293 cells with FK506. Format: cell-based. As to conditions: 150 nM. Here is the method: HEK293 cells that transiently express TrpC1 were treated with FK506 for indicted time prior to preparation of lysates and binding to GST-Homer. Note that FK506 treatment increases TrpC1 binding to Homer.
An observation from the Homer-TrpC1 binding data remained enigmatic. […] Additionally, certain point mutants of the C-terminal Homer ligand increase binding to Homer. […] The possibility that an FKBP homologue might bind mammalian TrpC1 and impact the binding of Homer was explored. As a first test of this hypothesis, the consequence of treating cells expressing TrpC1 with FK506, and then testing TrpC1 binding to GST-Homer was examined. HEK293 cells were transfected with wt TrpC1 and treated with 150 nM FK506 for times ranging from 15 min to 24 hrs. Cells lysates were prepared in 1% Triton and mixed with GST-Homer1 EVH1 and bound TrpC1 assayed by western blot. Lysates were also assayed to compare expression in each of the samples. […] This effect was detected as early as 30 min after addition of FK506 and persisted for 24 hrs. A peak of increased binding appeared at ˜6hrs. […] It was concluded that FK506 increases the binding of TrpC1 to Homer at a dose that is known to the relevant for FKBP.

The target of experiment [2] is T1, TrpC1 binding to GST-FKBP52 (Homo sapiens, UniProt Q02790).
T1 construct: expressed in transfected cells; host or cells: HEK293 cell lysate (TrpC1)
T1 sequence (Q02790 1-459): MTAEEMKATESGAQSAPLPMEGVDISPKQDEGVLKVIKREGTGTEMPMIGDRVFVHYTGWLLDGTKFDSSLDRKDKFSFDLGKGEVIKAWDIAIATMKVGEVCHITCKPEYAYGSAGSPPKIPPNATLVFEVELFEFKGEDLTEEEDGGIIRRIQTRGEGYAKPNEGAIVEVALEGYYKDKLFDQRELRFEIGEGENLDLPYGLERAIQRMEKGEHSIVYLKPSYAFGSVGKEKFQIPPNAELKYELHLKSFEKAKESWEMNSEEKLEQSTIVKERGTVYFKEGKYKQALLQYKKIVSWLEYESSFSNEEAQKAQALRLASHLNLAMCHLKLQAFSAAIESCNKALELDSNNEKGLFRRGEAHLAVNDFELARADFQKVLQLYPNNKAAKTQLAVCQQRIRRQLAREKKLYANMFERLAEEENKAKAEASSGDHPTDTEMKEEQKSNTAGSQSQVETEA
Description: TrpC1 binding to GST-FKBP52 after pretreating cell lysates with PPIase inhibitors. The text has this: To further test this hypothesis, the binding of TrpC1 to GST-FKBP12 or GST-FKBP52 was examined. Also, the effect of pretreating cell lysates with FK506, GPI-1046, cyclosporin A or the control agent aniracetam (structurally similar to GPI-1946) was examined. The notion being that dissociation of endogenous FKBP would increase the availability of TrpC1 to bind GST-FKBP in vitro. The FK506 might also be expected to bind to GST-FKBP but because this protein is highly concentrated on the bead and is in vast excess to cellular FKBP, the net consequence of drug treatment would be increased binding of TrpC1 to GST-FKBP. In these assays, TrpC1 bound to FKBP52 (FIG. 15), but not to FKBP12. Binding of TrpC1 to GST-FKBP52 was increased by treatment with both FK506 and GPI1046. The effect of these agents was particularly robust for the dimeric TrpC1 species and was detected with 100 nM FK506 or GPI1046. These studies confirmed that TrpC1 is bound by Homer and FKBP52, and that treatment of cell lysates or cells with drugs that inhibit rotamase activity and dissociate rotamases from their target proteins, result in enhanced binding of TrpC1 to both Homer (FIG. 14) and FKBP52 (FIG. 15).

The test system of the next experiment is TrpC1 binding to Homer. Description: TrpC1 binding to GSTHomer after treating lysates of TrpC1-expressing HEK293 cells. As to conditions: for effect on TrpC1 binding to Homer: lysates treated with indicated concentrations. The procedure: TrpC1 was transiently expressed in HEK293 cells and lysates were treated with the indicated concentrations of FK506, GPI1046, cyclosporin A or aniracetam (negative control) and assayed for TrpC1 binding to GSTHomer. TrpC1 migrates as both a monomer and dimer. Note that FK506, GPI1046 and cyclosporin A (but not aniracetam) treatment results in increased TrpC1 binding to Homer.

Where [3] appears, read: 1 micromolar, HEK293 cells expressing mGluR5.

Turning to `C=CC[C@@H]1/C=C(\C)C[C@H](C)C[C@H](OC)[C@H]2O[C@@](O)(C(=O)C(=O)N3CCCC[C@H]3C(=O)O[C@H](/C(C)=C/[C@@H]3CC[C@@H](O)[C@H](OC)C3)[C@H](C)[C@@H](O)CC1=O)[C@H](C)C[C@@H]2OC` [FK506], the “time for which mGluR5 binding remained elevated” value in the experiment on mGluR5 binding to Homer (setting [3]) is 24 h. Besides, in experiment [1], the “earliest time at which increased TrpC1 binding was detected” value amounted to 30 min, the “time for which increased TrpC1 binding persisted” value stood at 24 h and the “time of peak of increased TrpC1 binding” value is ~6 h.

As for `CCC(C)(C)C(=O)C(=O)N1CCC[C@H]1C(=O)OCCCc1cccnc1` [GPI1046], in the experiment with mGluR5 binding to Homer (1 micromolar, 12 or 24 hrs), the “mGluR5 binding after 12 or 24 hrs of treatment” value is listed as “decreased”. The “effect on expression of mGluR5 in lysates” value with mGluR5 binding to Homer (1 micromolar, HEK293 cells) is on record as “did not significantly alter”. In the experiment with mGluR5 binding to Homer (setting [3]), the “treatment time of peak mGluR5 binding” value is ≤ 3 h. The “treatment time within which mGluR5 binding increased” value in the experiment on mGluR5 binding to Homer (setting [3]) is ≤ 30 min. In addition, the “effect on mGluR5 binding to GST-Homer” value is listed as “time-dependent increase” in the experiment with mGluR5 binding to Homer and “effective in increasing” in the experiment on mGluR5 binding to Homer (listed as GPI 1046). In experiment [2] (dimeric TrpC1 species, pretreated lysates), the “concentration at which increased TrpC1 binding to GST-FKBP52 was detected” value amounted to 100 nM. The “effect on binding of TrpC1 to GST-FKBP52” value in experiment [2] (pretreated cell lysates) is listed as “increased”. Also, in the experiment on TrpC1 binding to Homer (10 nM), the “effect on TrpC1 binding to Homer at 10 nM” value is recorded as “potent enhancement”. In addition, the “effect on TrpC1 binding to Homer with higher doses or longer times” value with TrpC1 binding to Homer (doses higher than 10 nM or longer times) is given as “decreases”. Besides, the “effect on TrpC1 binding to Homer” value in the experiment with TrpC1 binding to Homer is “increased”; in the experiment on TrpC1 binding to Homer (listed as GPI 1046), “enhanced”.

With `COc1ccc(C(=O)N2CCCC2=O)cc1` [aniracetam], the “effect on TrpC1 binding to Homer” value with TrpC1 binding to Homer is “not”.
